Results from ChEMBL document CHEMBL3045199, “Synthesis of some (E)-6-[2-(furan-2-yl)ethenyl]-1,2,4-triazin-5-ones and their biological evaluation as antitumor agents” (2013).

How the values were obtained:
Type in all cases: functional
[1] = system: BT-549; experiment: Cytotoxicity against Homo sapiens (human) BT549 cells after 48 hr by SRB assay; details: BT-549, 48 h
[2] = system: PC-3; experiment: Cytotoxicity against Homo sapiens (human) PC3 cells after 48 hr by SRB assay; details: PC-3, 48 h
[3] = system: UO-31; experiment: Cytotoxicity against Homo sapiens (human) UO31 cells after 48 hr by SRB assay; details: UO-31, 48 h
[4] = system: SN12C; experiment: Cytotoxicity against Homo sapiens (human) SN12C cells after 48 hr by SRB assay
[5] = system: RXF 393; experiment: Cytotoxicity against Homo sapiens (human) RXF393 cells after 48 hr by SRB assay; details: RXF 393, 48 h
[6] = system: ACHN; experiment: Cytotoxicity against Homo sapiens (human) ACHN cells after 48 hr by SRB assay
[7] = system: 786-0; experiment: Cytotoxicity against Homo sapiens (human) 786-0 cells after 48 hr by SRB assay; details: 786-0, 48 h
[8] = system: A549; experiment: Cytotoxicity against Homo sapiens (human) A549 cells after 48 hr by SRB assay; details: A549, 48 h
[9] = system: MOLT-4; experiment: Cytotoxicity against Homo sapiens (human) MOLT4 cells after 48 hr by SRB assay; details: MOLT-4, 48 h
[10] = system: OVCAR-8; experiment: Cytotoxicity against Homo sapiens (human) OVCAR8 cells after 48 hr by SRB assay; details: OVCAR-8, 48 h
[11] = system: OVCAR-4; experiment: Cytotoxicity against Homo sapiens (human) OVCAR4 cells after 48 hr by SRB assay; details: OVCAR-4, 48 h
[12] = system: OVCAR-3; experiment: Cytotoxicity against Homo sapiens (human) OVCAR3 cells after 48 hr by SRB assay; details: OVCAR-3, 48 h
[13] = system: IGROV-1; experiment: Cytotoxicity against Homo sapiens (human) IGROV1 cells after 48 hr by SRB assay; details: IGROV-1, 48 h
[14] = system: UACC-62; experiment: Cytotoxicity against Homo sapiens (human) UACC62 cells after 48 hr by SRB assay; details: UACC-62, 48 h
[15] = system: SK-MEL-28; experiment: Cytotoxicity against Homo sapiens (human) SK-MEL-28 cells after 48 hr by SRB assay; details: SK-MEL-28, 48 h
[16] = system: SK-MEL-2; experiment: Cytotoxicity against Homo sapiens (human) SK-MEL-2 cells after 48 hr by SRB assay; details: SK-MEL-2, 48 h
[17] = system: M14; experiment: Cytotoxicity against Homo sapiens (human) M14 cells after 48 hr by SRB assay; details: M14, 48 h
[18] = system: U-251; experiment: Cytotoxicity against Homo sapiens (human) U251 cells after 48 hr by SRB assay; details: U-251, 48 h
[19] = system: SNB-19; experiment: Cytotoxicity against Homo sapiens (human) SNB19 cells after 48 hr by SRB assay; details: SNB-19, 48 h
[20] = system: SNB-75; experiment: Cytotoxicity against Homo sapiens (human) SNB75 cells after 48 hr by SRB assay; details: SNB-75, 48 h
[21] = system: SF-295; experiment: Cytotoxicity against Homo sapiens (human) SF295 cells after 48 hr by SRB assay; details: SF-295, 48 h
[22] = system: SF-539; experiment: Cytotoxicity against Homo sapiens (human) SF539 cells after 48 hr by SRB assay; details: SF-539, 48 h
[23] = system: SW-620; experiment: Cytotoxicity against Homo sapiens (human) SW620 cells after 48 hr by SRB assay; details: SW-620, 48 h
[24] = system: SF-268; experiment: Cytotoxicity against Homo sapiens (human) SF268 cells after 48 hr by SRB assay; details: SF-268, 48 h
[25] = system: HT-29; experiment: Cytotoxicity against Homo sapiens (human) HT-29 cells after 48 hr by SRB assay; details: HT-29, 48 h
[26] = system: KM12; experiment: Cytotoxicity against Homo sapiens (human) KM12 cells after 48 hr by SRB assay; details: KM12, 48 h
[27] = system: HCT-116; experiment: Cytotoxicity against Homo sapiens (human) HCT116 cells after 48 hr by SRB assay; details: HCT-116, 48 h
[28] = system: HCT-15; experiment: Cytotoxicity against Homo sapiens (human) HCT15 cells after 48 hr by SRB assay; details: HCT-15, 48 h
[29] = system: COLO 205; experiment: Cytotoxicity against Homo sapiens (human) COLO205 cells after 48 hr by SRB assay; details: COLO 205, 48 h
[30] = system: HCC 2998; experiment: Cytotoxicity against Homo sapiens (human) HCC2998 cells after 48 hr by SRB assay; details: HCC 2998, 48 h
[31] = system: NCI-H460; experiment: Cytotoxicity against Homo sapiens (human) NCI-H460 cells after 48 hr by SRB assay; details: NCI-H460, 48 h
[32] = system: NCI-H522; experiment: Cytotoxicity against Homo sapiens (human) NCI-H522 cells after 48 hr by SRB assay; details: NCI-H522, 48 h
[33] = system: NCI-H23; experiment: Cytotoxicity against Homo sapiens (human) NCI-H23 cells after 48 hr by SRB assay; details: NCI-H23, 48 h
[34] = system: NCI-H322M; experiment: Cytotoxicity against Homo sapiens (human) NCI-H322M cells after 48 hr by SRB assay
[35] = read-out: LC50 (the source's name)

`Nc1cc(-c2ccc(Cl)cc2)nn1-c1nc(=O)c(/C=C/c2ccco2)n[nH]1` showed a TGI [1] of 43.8 µM, a GI50 ([1]; read-out: GI50) of 4.42 µM and a CC50 [1, 35] of over 100 µM. It also gave a GI50 ([1]; read-out: pGI50 (converted)) of 4.47 µM, an LC50 (50% lethal concentration) [2] of over 100 µM and a TGI [2] of 56.2 µM. For the same compound, the GI50 ([2]; read-out: GI50) was 5.6 µM, the GI50 ([2]; read-out: pGI50 (converted)) was 5.62 µM and the TGI [3] was 13.7 µM. For the same compound, the GI50 ([3]; read-out: GI50) was 1630 nM, the CC50 [3, 35] was over 100 µM and the GI50 ([3]; read-out: pGI50 (converted)) was 1620 nM. It also gave a TGI [4] of over 100 µM, a GI50 ([4]; read-out: GI50) of 18.7 µM and a CC50 [4, 35] of over 100 µM. For the same compound, the GI50 ([4]; read-out: pGI50 (converted)) was 18.6 µM, the LC50 [5] was over 100 µM and the TGI [5] was 54.9 µM. The GI50 ([5]; read-out: GI50) was 13.1 µM, the GI50 ([5]; read-out: pGI50 (converted)) was 13.2 µM and the LC50 [6] was over 100 µM. For the same compound, the TGI [6] was 24.8 µM, the GI50 ([6]; read-out: GI50) was 3.8 µM and the GI50 ([6]; read-out: pGI50 (converted)) was 3.8 µM. For the same compound, the LC50 [7] was over 100 µM, the TGI [7] was 21.2 µM and the GI50 ([7]; read-out: GI50) was 3.98 µM. It also gave a GI50 ([7]; read-out: pGI50 (converted)) of 3.98 µM, an LC50 [8] of over 100 µM and a TGI [8] of 34.2 µM. The GI50 ([8]; read-out: GI50) was 3.48 µM, the GI50 ([8]; read-out: pGI50 (converted)) was 3.47 µM and the TGI [9] was 18.5 µM. It also gave a GI50 ([9]; read-out: GI50) of 2010 nM, a CC50 [9, 35] of over 100 µM and a GI50 ([9]; read-out: pGI50 (converted)) of 2000 nM. It also gave a TGI [10] of 65.8 µM, a GI50 ([10]; read-out: GI50) of 4.47 µM and a CC50 [10, 35] of over 100 µM. The GI50 ([10]; read-out: pGI50 (converted)) was 4.47 µM, the LC50 [11] was over 100 µM and the TGI [11] was 28.8 µM. It also gave a GI50 ([11]; read-out: GI50) of 3.45 µM, a GI50 ([11]; read-out: pGI50 (converted)) of 3.47 µM and an LC50 (50% lethal concentration) [12] of 31.8 µM. The TGI [12] was 5.2 µM, the GI50 ([12]; read-out: GI50) was 1480 nM and the GI50 ([12]; read-out: pGI50 (converted)) was 1480 nM. It also gave an LC50 (concentration killing 50% of cells) [13] of over 100 µM, a TGI [13] of 37.8 µM and a GI50 ([13]; read-out: GI50) of 4.89 µM. It also gave a GI50 ([13]; read-out: pGI50 (converted)) of 4.9 µM, an LC50 (concentration killing 50% of cells) [14] of over 100 µM and a TGI [14] of over 100 µM. The GI50 ([14]; read-out: GI50) was 5.07 µM, the GI50 ([14]; read-out: pGI50 (converted)) was 5.01 µM and the LC50 [15] was over 100 µM. For the same compound, the TGI [15] was 82.3 µM, the GI50 ([15]; read-out: GI50) was 4.06 µM and the GI50 ([15]; read-out: pGI50 (converted)) was 4.07 µM. For the same compound, the TGI [16] was 77.9 µM, the GI50 ([16]; read-out: GI50) was 15.6 µM and the CC50 [16, 35] was over 100 µM. It also gave a GI50 ([16]; read-out: pGI50 (converted)) of 15.5 µM, an LC50 [17] of over 100 µM and a TGI [17] of 31.7 µM. The GI50 ([17]; read-out: GI50) was 2270 nM, the GI50 ([17]; read-out: pGI50 (converted)) was 2290 nM and the TGI [18] was 84.8 µM. The GI50 ([18]; read-out: GI50) was 4.47 µM, the CC50 [18, 35] was over 100 µM and the GI50 ([18]; read-out: pGI50 (converted)) was 4.47 µM. It also gave a TGI [19] of 69.4 µM, a GI50 ([19]; read-out: GI50) of 5.81 µM and a CC50 [19, 35] of over 100 µM. It also gave a GI50 ([19]; read-out: pGI50 (converted)) of 5.75 µM, a TGI [20] of 37.2 µM and a GI50 ([20]; read-out: GI50) of 10.6 µM. For the same compound, the CC50 [20, 35] was over 100 µM, the GI50 ([20]; read-out: pGI50 (converted)) was 10.7 µM and the TGI [21] was 24.3 µM. The GI50 ([21]; read-out: GI50) was 1580 nM, the CC50 [21, 35] was over 100 µM and the GI50 ([21]; read-out: pGI50 (converted)) was 1580 nM. The TGI [22] was 26.1 µM, the GI50 ([22]; read-out: GI50) was 5.49 µM and the CC50 [22, 35] was over 100 µM. It also gave a GI50 ([22]; read-out: pGI50 (converted)) of 5.5 µM, a TGI [23] of over 100 µM and a GI50 ([23]; read-out: GI50) of 5.02 µM. It also gave a CC50 [23, 35] of over 100 µM, a GI50 ([23]; read-out: pGI50 (converted)) of 5.01 µM and a TGI [24] of 25.1 µM. For the same compound, the GI50 ([24]; read-out: GI50) was 1990 nM, the CC50 [24, 35] was over 100 µM and the GI50 ([24]; read-out: pGI50 (converted)) was 2000 nM. The TGI [25] was over 100 µM, the GI50 ([25]; read-out: GI50) was 7.82 µM and the CC50 [25, 35] was over 100 µM. It also gave a GI50 ([25]; read-out: pGI50 (converted)) of 7.76 µM, a TGI [26] of 32 µM and a GI50 ([26]; read-out: GI50) of 3.19 µM. For the same compound, the CC50 [26, 35] was over 100 µM, the GI50 ([26]; read-out: pGI50 (converted)) was 3.16 µM and the TGI [27] was 15.6 µM. The GI50 ([27]; read-out: GI50) was 2920 nM, the CC50 [27, 35] was over 100 µM and the GI50 ([27]; read-out: pGI50 (converted)) was 2880 nM. It also gave a TGI [28] of over 100 µM, a GI50 ([28]; read-out: GI50) of 1890 nM and a CC50 [28, 35] of over 100 µM. For the same compound, the GI50 ([28]; read-out: pGI50 (converted)) was 1910 nM, the TGI [29] was 18.4 µM and the GI50 ([29]; read-out: GI50) was 3.44 µM. The CC50 [29, 35] was over 100 µM, the GI50 ([29]; read-out: pGI50 (converted)) was 3.47 µM and the TGI [30] was over 100 µM. It also gave a GI50 ([30]; read-out: GI50) of 5.59 µM, a CC50 [30, 35] of over 100 µM and a GI50 ([30]; read-out: pGI50 (converted)) of 5.62 µM. The TGI [31] was 13.9 µM, the GI50 ([31]; read-out: GI50) was 1880 nM and the CC50 [31, 35] was over 100 µM. It also gave a GI50 ([31]; read-out: pGI50 (converted)) of 1860 nM, a TGI [32] of 36.8 µM and a GI50 ([32]; read-out: GI50) of 5.12 µM. The CC50 [32, 35] was over 100 µM, the GI50 ([32]; read-out: pGI50 (converted)) was 5.13 µM and the TGI [33] was 53.9 µM. For the same compound, the GI50 ([33]; read-out: GI50) was 5.13 µM, the CC50 [33, 35] was over 100 µM and the GI50 ([33]; read-out: pGI50 (converted)) was 5.13 µM. It also gave a TGI [34] of 38.2 µM, a GI50 ([34]; read-out: GI50) of 1470 nM and a CC50 [34, 35] of over 100 µM. It also gave a GI50 ([34]; read-out: pGI50 (converted)) of 1480 nM.
